The source of these data is patent US8722720B2, “Imidazole derivatives as IDO inhibitors” (NewLink Genetics Corporation, priority 2010, dated 2014).

This test addresses T1, purified human IDO protein (Homo sapiens, UniProt P14902).
T1 construct: 2 extra amino acids (linker from the BglII cloning site of pQE70); made in house; host or cells: E. coli M15(pREP4) with plasmid pQE70-hIDO
Briefly: Enzymatic IDO assay (kynurenine production, absorbance at 480 nm). It is filed as biochemical. To be noted: values reported in ranges. As to the method:
The inhibitors were initially diluted in DMSO at 100 mM and were diluted in potassium phosphate 50 mM, added to the reaction mixture at final concentrations raging from 1 mM to 5 nM and preincubated with the enzyme for 5 min at 25° C. The reaction was started by addition of L-tryptophan to 200 μM and incubated 15 min at 37° C. The reaction was stopped by addition of 0.5 vol of 30% trichloroacetic acid and incubated 30 min at 60° C. to hydrolyze N-formylkynurenine to kynurenine. The reaction was centrifuged at 3400 g for 5 min to remove precipitated protein and the supernatant was reacted with 2% (w/v) of p-dimethylaminobenzaldehyde in acetic acid. The reaction was incubated 10 min at 25° C. and read at 480 nm in a spectrophotometer. […] Nonlinear regressions and determination of the IC50 values were performed using the GraphPad Prism 4 software.

[1] abbreviates: recombinant human IDO, read-out: hIDO IC50.
The mark [2] stands for this setting: hIDO IC50, recombinant human IDO.

Like-named read-outs stand apart in the source and are kept apart here.

T1 sequence (P14902 whole entry P110S/E119G): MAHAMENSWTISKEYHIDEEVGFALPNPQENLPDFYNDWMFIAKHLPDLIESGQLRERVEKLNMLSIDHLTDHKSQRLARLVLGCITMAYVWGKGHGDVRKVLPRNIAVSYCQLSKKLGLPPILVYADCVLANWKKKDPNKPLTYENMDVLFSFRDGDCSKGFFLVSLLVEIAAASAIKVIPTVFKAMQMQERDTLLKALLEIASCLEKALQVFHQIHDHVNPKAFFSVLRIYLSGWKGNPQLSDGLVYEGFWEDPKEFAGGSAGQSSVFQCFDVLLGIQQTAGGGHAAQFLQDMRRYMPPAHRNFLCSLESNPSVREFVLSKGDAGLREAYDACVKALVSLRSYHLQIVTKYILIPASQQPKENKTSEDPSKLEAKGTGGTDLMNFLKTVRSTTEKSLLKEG

As to `O=C(Nc1ccc(CCOc2ccccc2-c2c[nH]cn2)c(Cl)c1)NC1CCOCC1` [compound 1265, 1-(4-(2-(2-(1H-imidazol-4-yl)phenoxy)ethyl)-3-chlorophenyl)-3-(tetrahydro-2H-pyran-4-yl)urea], under setting [1], the 50% inhibitory concentration (IC50) was below 1 µM. Consider `O=C(O)c1ccc(C(=O)Nc2ccc(CCOc3ccccc3-c3c[nH]cn3)cc2)cc1` [compound 1270, 4-((4-(2-(2-(1H-imidazol-4-yl)phenoxy)ethyl)phenyl)carbamoyl)benzoic acid], for which, under setting [1], the IC50 is 1 to 10 µM. Turning to `O=C(Nc1ccc(CCOc2ccccc2-c2c[nH]cn2)cc1)c1cccs1` [compound 1150, N-(4-(2-(2-(1H-imidazol-4-yl)phenoxy)ethyl)phenyl)thiophene-2-carboxamide], the IC50 under setting [1] lay within 1 to 10 µM. The same measure, in the same setting: for `CCC(O)(COc1ccccc1-c1c[nH]cn1)c1cccs1` (stereo not drawn) [compound 976, 1-(2-(1H-imidazol-4-yl)phenoxy)-2-(thiophen-2-yl)butan-2-ol] the value was 10 to 100 µM; for `Oc1c(-c2c[nH]cn2)cc(Cl)c2cccnc12` [compound 956, 5-chloro-7-(1H-imidazol-4-yl)quinolin-8-ol], above 100 µM.

As to `C=C(COc1ccccc1-c1c[nH]cn1)c1coc2ccccc12` [compound 1030, 4-(2-(2-(benzofuran-3-yl)allyloxy)phenyl)-1H-imidazole], under setting [1], the IC50 lay in the range of 1 to 10 µM. The same measure, in the same setting: for `CC(Oc1ccccc1-c1c[nH]cn1)c1ccccc1` (stereo not drawn) [compound 1045, 4-(2-(1-phenylethoxy)phenyl)-1H-imidazole] the value was 10 to 100 µM. The same measure, in the same setting: the same measure for `Oc1ncccc1-c1c[nH]cn1` [compound 1015, 3-(1H-imidazol-4-yl)pyridin-2-ol]: above 100 µM. Take `c1cnc2c(-c3c[nH]cn3)cccc2c1` [compound 952, 8-(1H-imidazol-4-yl)quinoline]: the IC50 under setting [1] is above 100 µM. With `c1ccc(-c2c[nH]cn2)c(OCc2cscn2)c1` [compound 1289, 4-((2-(1H-imidazol-4-yl)phenoxy)methyl) thiazole], the IC50 under setting [1] was in the range of 10 to 100 µM.

As for `CCOC(=O)Nc1ccc(CCOc2ccccc2-c2c[nH]cn2)cc1` [compound 1104, ethyl 4-(2-(2-(1H-imidazol-4-yl)phenoxy)ethyl)phenylcarbamate], under setting [1], the IC50 was in the range of 1 to 10 µM. On the same count and under the same terms, for `Clc1ccc(CCOc2ccccc2-c2c[nH]cn2)cn1` [compound 1218, 5-(2-(2-(1H-imidazol-4-yl)phenoxy)ethyl)-2-chloropyridine] the value was 10 to 100 µM; for `O=C(Cc1ccc([N+](=O)[O-])cc1)Nc1ccc(CCOc2ccccc2-c2c[nH]cn2)cc1` [compound 1247, N-(4-(2-(2-(1H-imidazol-4-yl)phenoxy)ethyl)phenyl)-2-(4-nitrophenyl)acetamide], below 1 µM. On to `CN(C(=O)Oc1ccc(Cl)cc1-c1c[nH]cn1)c1ccccc1` [compound 1088, 4-chloro-2-(1H-imidazol-4-yl)phenyl methyl(phenyl)carbamate], for which the IC50 under setting [2] was above 100 µM.

For the compound `c1csc(-c2ccc(CCOc3ccccc3-c3c[nH]cn3)cc2)c1` [compound 1200, 4-(2-(4-(thiophen-2-yl)phenethoxy)phenyl)-1H-imidazole], the IC50 under setting [1] fell in the range of 10 to 100 µM.

Consider `O=C(c1cccs1)N1CCC(CCOc2ccccc2-c2c[nH]cn2)CC1` [compound 1165, (4-(2-(2-(1H-imidazol-4-yl)phenoxy)ethyl)piperidin-1-yl)(thiophen-2-yl)methanone], for which the IC50 under setting [1] fell in the range of 1 to 10 µM. The same measure, in the same setting: the same measure for `Nc1nc(CC(=O)Nc2ccc(CCOc3ccccc3-c3c[nH]cn3)cc2)cs1` [compound 1257, N-(4-(2-(2-(1H-imidazol-4-yl)phenoxy)ethyl)phenyl)-2-(2-aminothiazol-4-yl)acetamide]: 1 to 10 µM; for `CC(=O)Nc1ccc(CCOc2ccccc2-c2c[nH]cn2)c(Cl)c1` [compound 1159, N-(4-(2-(2-(1H-imidazol-4-yl)phenoxy)ethyl)-3-chlorophenyl)acetamide]: 1 to 10 µM. For `Oc1cccc(OCCN2CCOCC2)c1-c1cnc[nH]1` [compound 1231, 2-(1H-imidazol-5-yl)-3-(2-morpholinoethoxy) phenol], the IC50 under setting [1] is 10 to 100 µM. On to `c1ccc(-c2c[nH]cn2)c(OCCC2CCCO2)c1` (stereo not drawn) [compound 1213, 4-(2-(2-(tetrahydrofuran-2-yl)ethoxy)phenyl)-1H-imidazole], for which the IC50 under setting [1] is 10 to 100 µM. For `CC(=O)Nc1ccc(CCOc2cccc(O)c2-c2cnc[nH]2)cc1` [compound 1232, N-(4-(2-(3-hydroxy-2-(1H-imidazol-5-yl)phenoxy)ethyl)phenyl)acetamide], the IC50 under setting [1] lay in the range of 10 to 100 µM. With `c1nc(-c2ccc3c(c2)OCCO3)c[nH]1` [compound 971, 4-(2,3-dihydrobenzo[b][1,4]dioxin-6-yl)-1H-imidazole], under setting [1], the IC50 is above 100 µM. The same measure, in the same setting: for `Fc1ccc(OCCc2ccccc2)c(-c2cnc[nH]2)c1` [compound 1292, 5-(5-fluoro-2-phenethoxyphenyl)-1H-imidazole] the value was 10 to 100 µM; for `Clc1cccc(-c2cnc[nH]2)c1OCCC1CCCCC1` [compound 1177, 5-(3-chloro-2-(2-cyclohexylethoxy)phenyl)-1H-imidazole], 1 to 10 µM.

Regarding `CN(C)C(=O)Oc1ccc(Br)cc1-c1c[nH]cn1` [compound 1035, 4-bromo-2-(1H-imidazol-4-yl)phenyl dimethylcarbamate], the IC50 under setting [2] was above 100 µM. As for `CC(C)(C)OC(=O)Nc1ccc(CCOc2ccccc2-c2c[nH]cn2)cc1` [compound 1046, tert-butyl 4-(2-(2-(1H-imidazol-4-yl)phenoxy)ethyl)phenylcarbamate], the 50% inhibitory concentration (IC50) under setting [1] was in the range of 1 to 10 µM. The same measure, in the same setting: the same measure for `O=C(CC1CCOCC1)Nc1ccc(CCOc2ccccc2-c2c[nH]cn2)c(Cl)c1` [compound 1260, N-(4-(2-(2-(1H-imidazol-4-yl)phenoxy)ethyl)-3-chlorophenyl)-2-(tetrahydro-2H-pyran-4-yl)acetamide]: below 1 µM; for `CC(C)(C)C(=O)Oc1ccc(Br)cc1-c1c[nH]cn1` [compound 967, 4-bromo-2-(1H-imidazol-4-yl)phenyl pivalate]: 1 to 10 µM; for `Fc1ccc(COc2ccccc2-c2c[nH]cn2)cc1` [compound 1022, 4-(2-(4-fluorobenzyloxy)phenyl)-1H-imidazole]: 10 to 100 µM. For `Oc1cccc(OCCCc2ccccc2)c1-c1cnc[nH]1` [compound 1010, 2-(1H-imidazol-5-yl)-3-(3-phenylpropoxy) phenol], the IC50 under setting [1] lay in the range of 10 to 100 µM.

With `O=C(O)CCSc1nc(-c2ccccc2)c(-c2ccccc2)[nH]1` [compound 1079, 3-(4,5-diphenyl-1H-imidazol-2-ylthio)propanoic acid], the IC50 under setting [1] is above 100 µM. Still for that read-out and setting: for `O=C(CN1CCCCCC1)Nc1ccc(CCOc2ccccc2-c2c[nH]cn2)cc1` [compound 1219, N-(4-(2-(2-(1H-imidazol-4-yl)phenoxy)ethyl)phenyl)-2-(azepan-1-yl)acetamide] the value was 10 to 100 µM; for `Fc1ccccc1CCOc1ccccc1-c1cnc[nH]1` [compound 1106, 5-(2-(2-fluorophenethoxy)phenyl)-1H-imidazole], 1 to 10 µM; for `c1nc(-c2ccc3cc[nH]c3c2)c[nH]1` [compound 961, 6-(1H-imidazol-4-yl)-1H-indole], 10 to 100 µM. On to `CC(CC1CCCCC1)Oc1ccccc1-c1c[nH]cn1` (stereo not drawn) [compound 1044, 4-(2-(1-cyclohexylpropan-2-yloxy)phenyl)-1H-imidazole], for which, under setting [1], the IC50 was in the range of 10 to 100 µM. As to `O=C(Cc1ccccc1)Nc1ccc(CCOc2ccccc2-c2cnc[nH]2)cc1` [compound 1102, N-(4-(2-(2-(1H-imidazol-4-yl)phenoxy)ethyl)phenyl)-2-phenylacetamide], the IC50 under setting [1] was below 1 µM.

In the case of `c1ccc2c(-c3cnc[nH]3)cccc2c1` [compound 957, 5-(naphthalen-1-yl)-1H-imidazole], the IC50 under setting [1] fell in the range of 10 to 100 µM. The same measure, in the same setting: the same measure for `O=C(CC1CCCO1)Nc1ccc(CCOc2ccccc2-c2c[nH]cn2)cc1` (stereo not drawn) [compound 1199, N-(4-(2-(2-(1H-imidazol-4-yl)phenoxy)ethyl)phenyl)-2-(tetrahydrofuran-2-yl)acetamide]: 1 to 10 µM. Still for that read-out and setting: the same measure for `Clc1ccccc1CCOc1ccc(Br)cc1-c1c[nH]cn1` [compound 1021, 4-(5-bromo-2-(2-chlorophenethoxy)phenyl)-1H-imidazole]: 10 to 100 µM; for `c1ccc2[nH]c(-c3c[nH]cn3)cc2c1` [compound 975, 2-(1H-imidazol-4-yl)-1H-indole]: 10 to 100 µM; for `CC(C)(C)OC(=O)N1CCC(CCOc2cccc(O)c2-c2cnc[nH]2)CC1` [compound 1240, tert-butyl 4-(2-(3-hydroxy-2-(1H-imidazol-5-yl)phenoxy)ethyl)piperidine-1-carboxylate]: 10 to 100 µM.

For the compound `CN1CCN(CCOc2ccccc2-c2c[nH]cn2)CC1` [compound 1234, 1-(2-(2-(1H-imidazol-4-yl)phenoxy)ethyl)-4-methylpiperazine], the concentration for half-maximal inhibition (IC50) under setting [1] was above 100 µM. On the same count and under the same terms, the same measure for `O=C(NCc1cccc(Cl)c1)C1CCC(=CCOc2ccccc2-c2c[nH]cn2)CC1` (stereo not drawn) [compound 947, 4-(2-(2-(1H-imidazol-4-yl)phenoxy)ethylidene)-N-(3-chlorobenzyl)cyclohexanecarbox-amide]: 10 to 100 µM; for `O=C(Nc1ccc(CCOc2ccccc2-c2c[nH]cn2)cc1)OCc1ccccc1` [compound 1136, benzyl (4-(2-(2-(1H-imidazol-4-yl)phenoxy)ethyl)phenyl)carbamate]: 1 to 10 µM; for `OC(c1ccccc1)c1c[nH]cn1` (stereo not drawn) [compound 1006, (1H-imidazol-4-yl)(phenyl)methanol]: above 100 µM.
